We go through four compounds from ChEMBL document CHEMBL1158992, “Application of two-dimensional nmr spectroscopy in the structural determination of marine natural products. Isolation and total structural assignment of 4-deoxyasbestinin diterpenes from the Caribbean gorgonian Briareum asbestinum” (J Nat Prod, 1991).

SMILES strings stand for the structures. Converted amounts (≈) assume the structure as drawn. The source made the active and inactive calls. The calls are words filed in the database; no cut-off is given here.

Data set [1] relates to Klebsiella pneumoniae. Briefly: Antimicrobial activity against Klebsiella pneumoniae. Format: functional, organism-based.
The nature of data set [2]: Cytotoxicity against CHOK1 cells. Format: cell-based, Cricetulus griseus. The conditions noted are these: chinese hamster, CHO-K1 cells; read-out: ED50 (the source's name).
Data set [3] relates to Human immunodeficiency virus. Kind of data set: Antiviral activity against HIV. Format: functional, organism-based.

Turning to `CCCC(=O)O[C@H]1[C@@H]2[C@@H]3[C@@H](C[C@H]1C)[C@@H](C)CO[C@@]1(C)CC/C=C(\C)C[C@@H]2O[C@@H]31` [4-DEOXYASBESTININ A], the result in data set [1] was Active. Further, the CC50 in data set [2] was 3.35 µg/mL (≈ 8.58 µM).

As to `CC(=O)O[C@H]1[C@@H]2[C@@H]3[C@@H](C[C@H]1C)[C@@H](C)CO[C@@]1(C)CC/C=C(/C)C[C@@H]2O[C@@H]31`, the outcome in data set [1] was Active. The CC50 in data set [2] is 4.82 µg/mL (≈ 13.3 µM).

As to `CCCC(=O)O[C@H]1[C@@H]2[C@@H]3[C@@H](C[C@H]1C)[C@@H](C)CO[C@@]1(C)CC/C=C(/C)C[C@@H]2O[C@@H]31`, the result in data set [1] was Active. For the same compound, the CC50 in data set [2] was 3.55 µg/mL (≈ 9.09 µM).

Regarding `CC(=O)O[C@H]1[C@@H]2[C@@H]3[C@@H](C[C@H]1C)[C@@H](C)CO[C@@]1(C)CC/C=C(\C)C[C@@H]2O[C@@H]31` [11-ACETOXY-4-DEOXYASBESTININ B], in data set [1], the outcome was Active. For the same compound, the outcome in data set [3] was inactive. Further, the CC50 in data set [2] was found to be 2.5 µg/mL (≈ 6.9 µM).
